Reference: US20170079278A1 (priority 2015, published 2017)

Key:
[1] = test system: White Fly (Aleyrodidae); assay: Field trial cypermethrin +/- EPAC, pest control in tomato crops; assay type: in vivo
[2] = test system: Bledo (Amaranthus Albus); assay: Field trial oxadiazone +/- EPAC, weed control in rice fields; assay type: in vivo
[3] = test system: Coffe Borer Beetle; assay: Field trial chlorpyrifos +/- EPAC, pest control in coffee fields; assay type: in vivo
[4] = test system: Mycosphaerella fijiensis; assay: Sensitivity test of ascospores (germination, germ tube elongation) to azoxystrobin +/- EPAC-F; assay type: cell-based; settings: Black Sigatoka, banana crops
Experimental: In a study in experimental conditions the effectiveness of EPAC-F was evaluated by a sensitivity test to Mycosphaerella fijiensis (from a banana farm in Santa Marta), causal agent of Black Sigatoka, following the recommendations of the Fungicide Resistance Action Committee's (FRAC) to strobilurin fungicides from.
The test is based on measuring the length elongation ascospore germ tube that germinated in culture medium 2% agar, modified with a number of products made by mixing the adjuvant, EPAC-F and fungicide Liege 25 SC, whose active ingredient is Azoxystrobin 250 g/L. Then the following 11 treatments were evaluated are as follows:
T1. Azoxystrobin 25% SC 100 at a dose of 400 cc/Ha. T2. Azoxystrobin 25 SC 50% at doses of 400 cc/Ha.+EPAC 10% T3. Azoxystrobin 25 SC 50% at doses of 400 cc/Ha.+EPAC 20% T4. Azoxystrobin 25 SC 70% at doses of 400 cc/Ha.+EPAC 10% T5. Azoxystrobin 25 SC 60% at doses of 400 cc/Ha.+EPAC 10% T1A. Azoxystrobin SC 25 50% at doses of 200 cc/Ha.+EPAC5% T2A. Azoxystrobin SC 25 50% at doses of 200 cc/Ha.+10% EPAC T3A. Azoxystrobin SC 25 50% at doses of 200 cc/Ha.+15% EPAC T4A. Azoxystrobin SC 25 25% at doses of 200 cc/Ha.+10% EPAC T5A. Azoxystrobin SC 25 25% at doses of 200 cc/Ha.+15% EPAC
The control process involved the use of fungicide Amystar 50 WG with the active ingredient Azoxystrobin 500 g/L. This product is considered direct competition from […]. […]

[5] = test system: Paja de Zorro (Leptochloa filiformis); assay: Field trial butachlor +/- EPAC, weed control; assay type: in vivo; settings: butachlor section
[6] = test system: Falsa Caminadora (Ischaemum rugosum); assay: Field trial pendimethalin +/- EPAC, weed control in rice fields; assay type: in vivo
[7] = test system: White Fly (Aleyrodidae); assay: Field trial profenophos +/- EPAC, pest control in tomato crops; assay type: in vivo
[8] = test system: adult T. vaporariorum; White Fly (Aleyrodidae); assay: Methamidophos/EPAC-I on adult whitefly on tomato; assay type: in vivo, Trialeurodes vaporariorum; design: concentration or dose not given beside the values; settings: tomato crops
Experimental: The effectiveness of EPAC-I was assessed with adult T. vaporariorum under experimental conditions taking into account the percentage of mortality by direct and indirect contact with the insects.
The completion of the performance test EPAC-I with adults of T. vaporariorum was carried out directly on whitefly adults collected from breeding individuals in the “Bio-Systems Center”. These were placed in a box with mesh which allows passage of the droplets in the spray. Product application was performed with an airbrush at a distance of 30 cm and a 45° angle on the application unit, achieving a uniform coverage with fine droplets. The quality was verified through application of a strip (2×2 cm) of water-sensitive paper.
To assemble the test, from tomato plants we selected randomly 5 leaflets per treatment and then were sprayed and once dried, in each bags mesh were placed into which 10 adults whiteflies were placed, and each of these units was duly marked according to the assessed treatment. Tomato plants with the evaluation units were maintained in a room with controlled temperature (20±1° C.), relative humidity (70±10%) and photoperiod of 12 h. The evaluation design was completely randomized and readings from day one after application to day 10 were performed.

[9] = test system: Coquito (Cyperus rotundus); assay: Field trial atrazine +/- EPAC, weed control in corn; assay type: in vivo
[10] = test system: Corn; assay: Field trial paraquat +/- EPAC, crop dissecation; assay type: in vivo; settings: A = 100% alone, B = 40% + EPAC 4%
[11] = test system: Paja de Zorro (Leptochloa filiformis); assay: Field trial clomazone +/- EPAC, weed control in rice fields; assay type: in vivo
[12] = test system: Piñita (Murdania Nudiflora); assay: Field trial glyphosate +/- EPAC, weed control in rice; assay type: in vivo; settings: A = chemical alone at 100%, B = reduced dose + EPAC
[13] = test system: Leptocloa; assay: as above; assay type: in vivo; settings: A = 100% alone, B = reduced dose + EPAC
[14] = test system: Guardarocio (Digitaria Sanguinalis); assay: as above; assay type: in vivo; settings: A = 100% alone, B = reduced dose + EPAC
[15] = test system: Cortadera (Cortaderia Selloana); assay: as above; assay type: in vivo; settings: A = 100% alone, B = reduced dose + EPAC
[16] = test system: Liendrepuerco (Echinochia Colonum); assay: as above; assay type: in vivo; settings: A = 100% alone, B = reduced dose + EPAC

CC1(C)C(C=C(Cl)Cl)C1C(=O)OC(C#N)c1cccc(Oc2ccccc2)c1 (stereo not shown) [Cypermethrin]
% of Pest Controlled ([1]; 3 Days): 90%
% of Pest Controlled ([1]; 8 Days): 87%
% of Pest Controlled ([1]; 15 Days): 76%

CC(C)Oc1cc(-n2nc(C(C)(C)C)oc2=O)c(Cl)cc1Cl [Oxadiazone]
% of Weeds Controlled ([2]; 3 Days): 87%
% of Weeds Controlled ([2]; 8 Days): 97%
% of Weeds Controlled ([2]; 15 Days): 100%

CCOP(=S)(OCC)Oc1nc(Cl)c(Cl)cc1Cl [Chlorpyrifos]
% of Pest Controlled ([3]; 7 Days): 88%
% of Pest Controlled ([3]; 14 Days): 83%
% of Pest Controlled ([3]; 21 Days): 73%

CO/C=C(\C(=O)OC)c1ccccc1Oc1cc(Oc2ccccc2C#N)ncn1 [Axozystrobin]
Fungus Inhibition: % Ascospore Germination Inhibited [4]: 24%
Fungus Inhibition: % Ascospore elongation Inhibition (>150 microm) [4]: 37%

CCCCOCN(C(=O)CCl)c1c(CC)cccc1CC [Butachlor]
% of Weeds Controlled ([5]; 3 Days): 93%
% of Weeds Controlled ([5]; 8 Days): 100%
% of Weeds Controlled ([5]; 15 Days): 100%

CCC(CC)Nc1c([N+](=O)[O-])cc(C)c(C)c1[N+](=O)[O-] [Pendimenthaline]
% of Weeds Controlled ([6]; 3 Days): 86.7%
% of Weeds Controlled ([6]; 8 Days): 96.7%
% of Weeds Controlled ([6]; 15 Days): 93%

CCCSP(=O)(OCC)Oc1ccc(Br)cc1Cl (stereo not shown) [Profenophos]
% of Pest Controlled ([7]; 7 Days): 92%
% of Pest Controlled ([7]; 12 Days): 82%
% of Pest Controlled ([7]; 15 Days): 75%

COP(N)(=O)SC (stereo not shown) [Metamidhophos, O, S-dimethyl-phosphoramidothioate]
% of Pest Controlled ([8]; 1 Day): 10%
% of Pest Controlled ([8]; 4 Days): 30%
% of Pest Controlled ([8]; 6 Days): 42%
% of Pest Controlled ([8]; 8 Days): 46%
% of Pest Controlled ([8]; 10 Days): 50%

CCNc1nc(Cl)nc(NC(C)C)n1 [Atrazine]
% of Weeds Controlled ([9]; 7 Days): 93%
% of Weeds Controlled ([9]; 14 Days): 90%
% of Weeds Controlled ([9]; 21 Days): 90%

C[n+]1ccc(-c2cc[n+](C)cc2)cc1 [Paraquat]
% of Crop Dissecated [10]: 100%

CC1(C)CON(Cc2ccccc2Cl)C1=O [Clomazone]
% of Weeds Controlled ([11]; 3 Days): 97%
% of Weeds Controlled ([11]; 8 Days): 93%
% of Weeds Controlled ([11]; 15 Days): 100%

O=C(O)CNCP(=O)(O)O [Glyphosate, N-phosphonomethyl-glycine]
% of Weeds Controlled [12]: 83%
% of Weeds Controlled [13]: 100%
% of Weeds Controlled [14]: 82%
% of Weeds Controlled [15]: 90%
% of Weeds Controlled [16]: 93%
